In patent publication US10766869B2, “Triazoles for the treatment of demyelinating dieases” (Vertex Pharmaceuticals Incorporated, priority 2015, dated 2020):

Test system: primary rat mixed cortical cells
Experiment: In vitro myelination assay (MBP positive myelin strands, fold myelin pixels above background)
Assay type: cell-based
Conditions: Rattus norvegicus, relative to baseline of no added compound, read-out: Fold myelin pixels above background; for fold induction at 1 µM: 1.0 μM compound; for fold induction at 10 µM: 10.0 μM compound
Procedure, shortened: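 Mixed cortical culture, P1 rat, 87,500-95,000 cells/well; compound present from seeding, refreshed days 6 and 10; 14 d, 37 °C, 5% CO2. Day 14: PFA fix, anti-MBP + Hoechst. Read-out: fold MBP myelin pixels over untreated, tested at 1.0 and 10.0 μM.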

Work on `COc1cc(F)cc(-n2cnc(Nc3cc(C4CC4)cc(N4CCN(C5COC5)CC4)c3)n2)c1` [Compound 388, N-[3-cyclopropyl-5-[4-(oxetan-3-yl)piperazin-1-yl]phenyl]-1-(3-fluoro-5-methoxy-phenyl)-1,2,4-triazol-3-amine] yielded a fold induction at 1 µM of 10 to 100 and a fold induction at 10 µM of at most 1.

`Fc1cc(F)cc(-n2cnc(Nc3cc(C4CC4)cc(N4CCN(C5COC5)CC4)c3)n2)c1` [Compound 389, N-(3-cyclopropyl-5-(4-(oxetan-3-yl)piperazin-1-yl)phenyl)-1-(3,5-difluorophenyl)-1H-1,2,4-triazol-3-amine] showed a fold induction at 1 µM of 1000 to 10000 and a fold induction at 10 µM of at most 1.

`CCN(C)Cc1cc(F)cc(-n2cnc(Nc3cc(C)cc(N4CCN(C)CC4)c3)n2)c1` [Compound 390, 1-[3-[[ethyl(methyl)amino]methyl]-5-fluoro-phenyl]-N-[3-methyl-5-(4-methylpiperazin-1-yl)phenyl]-1,2,4-triazol-3-amine] was tested, and the fold induction at 1 µM was 10 to 100 and the fold induction at 10 µM was 10 to 100.

With `Cc1cc(Nc2ncn(-c3ccccc3)n2)cc(O[C@@H]2CCN(C3COC3)C2)c1` [Compound 391, N-[3-methyl-5-[(3R)-1-(oxetan-3-yl)pyrrolidin-3-yl]oxy-phenyl]-1-phenyl-1,2,4-triazol-3-amine] the fold induction at 1 µM was 1000 to 10000 and the fold induction at 10 µM was 100 to 1000.

`FC(F)c1cc(Nc2ncn(-c3ccccc3)n2)cc(N2CCOCC2)c1` [Compound 392, N-[3-(difluoromethyl)-5-morpholino-phenyl]-1-phenyl-1,2,4-triazol-3-amine] showed a fold induction at 1 µM of 100 to 1000 and a fold induction at 10 µM of 10 to 100.

In the case of `Fc1ccc(-n2cnc(Nc3cc(N4CCOCC4)nc(N4CCOCC4)c3)n2)cc1F` [Compound 393, N-[1-(3,4-difluorophenyl)-1,2,4-triazol-3-yl]-2,6-dimorpholino-pyridin-4-amine], the fold induction at 1 µM is reported as 100 to 1000 and the fold induction at 10 µM is reported as at most 1.

With `Fc1ccc(-n2cnc(Nc3cc(F)cc(N4CCOCC4)c3)n2)cc1` [Compound 394, N-(3-fluoro-5-morpholino-phenyl)-1-(4-fluorophenyl)-1,2,4-triazol-3-amine] the fold induction at 1 µM was 1 to 10 and the fold induction at 10 µM was at most 1.

`COc1cc(F)cc(-n2cnc(Nc3cc(C)cc(N4CCN(C)CC4)c3)n2)c1` [Compound 395, 1-(3-fluoro-5-methoxy-phenyl)-N-[3-methyl-5-(4-methylpiperazin-1-yl)phenyl]-1,2,4-triazol-3-amine] gave a fold induction at 1 µM of 10 to 100 and a fold induction at 10 µM of at most 1.

For `CCCc1cc(Nc2ncn(-c3cc(F)cc(F)c3)n2)cc(N2CCN(C3COC3)CC2)c1` [Compound 396, 1-(3,5-difluorophenyl)-N-[3-[4-(oxetan-3-yl)piperazin-1-yl]-5-propyl-phenyl]-1,2,4-triazol-3-amine], the fold induction at 1 µM was 10 to 100 and the fold induction at 10 µM was 10 to 100.

Molecule `Cc1cc(Nc2ncn(-c3cccc(Cl)c3)n2)cc(N2CCN(C3COC3)CC2)c1` [Compound 397, 1-(3-chlorophenyl)-N-[3-methyl-5-[4-(oxetan-3-yl)piperazin-1-yl]phenyl]-1,2,4-triazol-3-amine] has a fold induction at 1 µM of 1000 to 10000 and a fold induction at 10 µM of 100 to 1000.

Molecule `Cc1cc(Nc2ncn(-c3ccccc3)n2)cc(N2CCN(CC(F)(F)F)CC2)c1` [Compound 398, N-[3-methyl-5-[4-(2,2,2-trifluoroethyl)piperazin-1-yl]phenyl]-1-phenyl-1,2,4-triazol-3-amine] has a fold induction at 1 µM of 1000 to 10000 and a fold induction at 10 µM of 100 to 1000.

For `Cc1cc(Nc2ncn(-c3ccnnc3)n2)cc(N2CCN(C)CC2)c1` [Compound 399, N-[3-methyl-5-(4-methylpiperazin-1-yl)phenyl]-1-pyridazin-4-yl-1,2,4-triazol-3-amine], the fold induction at 1 µM was 10 to 100 and the fold induction at 10 µM was 1 to 10.

`Fc1cc(Cl)cc(-n2cnc(Nc3cc(C4CC4)cc(N4CCN(C5COC5)CC4)c3)n2)c1` [Compound 400, 1-(3-chloro-5-fluoro-phenyl)-N-[3-cyclopropyl-5-[4-(oxetan-3-yl)piperazin-1-yl]phenyl]-1,2,4-triazol-3-amine] gave a fold induction at 1 µM of 1000 to 10000 and a fold induction at 10 µM of at most 1.

`CCc1cc(Nc2ncn(-c3cncc(C)n3)n2)cc(N2CCN(C3COC3)CC2)c1` [Compound 401, N-[3-ethyl-5-[4-(oxetan-3-yl)piperazin-1-yl]phenyl]-1-(6-methylpyrazin-2-yl)-1,2,4-triazol-3-amine] gave a fold induction at 1 µM of 100 to 1000 and a fold induction at 10 µM of 100 to 1000.

`CC(=O)N1CCC(Nc2cc(C)cc(Nc3ncn(-c4ccccc4)n3)c2)CC1` [Compound 402, 1-[4-[3-methyl-5-[(1-phenyl-1,2,4-triazol-3-yl)amino]anilino]-1-piperidyl]ethanone] gave a fold induction at 1 µM of 100 to 1000 and a fold induction at 10 µM of 10 to 100.

With `Cc1cc(Nc2ncn(-c3ccnc(F)c3)n2)cc(N2CCOCC2)c1` [Compound 403, 1-(2-fluoro-4-pyridyl)-N-(3-methyl-5-morpholino-phenyl)-1,2,4-triazol-3-amine] the fold induction at 1 µM was 1000 to 10000 and the fold induction at 10 µM was 10 to 100.

`Cc1cc(Nc2ncn(-c3ccccn3)n2)cc(C2COC2)c1` [Compound 404, N-[3-methyl-5-(oxetan-3-yl)phenyl]-1-(2-pyridyl)-1,2,4-triazol-3-amine] showed a fold induction at 1 µM of 100 to 1000 and a fold induction at 10 µM of 100 to 1000.

For `Fc1cc(F)cc(-n2cnc(Nc3cc(C4CC4)nc(N4CCOCC4)c3)n2)c1` [Compound 405, 2-cyclopropyl-N-[1-(3,5-difluorophenyl)-1,2,4-triazol-3-yl]-6-morpholino-pyridin-4-amine], the fold induction at 1 µM was 100 to 1000 and the fold induction at 10 µM was 1000 to 10000.

In the case of `Fc1cc(F)cc(-n2cnc(Nc3cc(C4CCOCC4)nc(C4CC4)c3)n2)c1` [Compound 407, 2-cyclopropyl-N-[1-(3,5-difluorophenyl)-1,2,4-triazol-3-yl]-6-tetrahydropyran-4-yl-pyridin-4-amine], the fold induction at 1 µM is reported as 1000 to 10000 and the fold induction at 10 µM is reported as at most 1.

`Cc1cc(Nc2ncn(-c3cc(F)cc(F)c3)n2)cc(C2CCCN(C3COC3)C2)c1` (stereo not drawn) [Compound 408, 1-(3,5-difluorophenyl)-N-[3-methyl-5-[1-(oxetan-3-yl)-3-piperidyl]phenyl]-1,2,4-triazol-3-amine] showed a fold induction at 1 µM of 100 to 1000 and a fold induction at 10 µM of 10 to 100.

For `Cc1cc(Nc2ncn(-c3ccc(F)cc3)n2)cc(C2COC2)c1` [Compound 409, 1-(4-fluorophenyl)-N-[3-methyl-5-(oxetan-3-yl)phenyl]-1,2,4-triazol-3-amine], the fold induction at 1 µM was 1000 to 10000 and the fold induction at 10 µM was 100 to 1000.

`Cc1cc(Nc2ncn(-c3ccccc3)n2)cc(OC2CCN(C3COC3)CC2)c1` [Compound 410, N-[3-methyl-5-[[1-(oxetan-3-yl)-4-piperidyl]oxy]phenyl]-1-phenyl-1,2,4-triazol-3-amine] showed a fold induction at 1 µM of 10 to 100 and a fold induction at 10 µM of at most 1.

With `Cc1cc(Nc2ncn(-c3cccc(F)c3)n2)cc(C2CCCN(C3COC3)C2)c1` (stereo not drawn) [Compound 411, 1-(3-fluorophenyl)-N-[3-methyl-5-[1-(oxetan-3-yl)-3-piperidyl]phenyl]-1,2,4-triazol-3-amine] the fold induction at 1 µM was 100 to 1000 and the fold induction at 10 µM was at most 1.

Molecule `CN1CCN(c2cc(Nc3ncn(-c4ccc(F)c(F)c4)n3)cc(C(F)(F)F)c2)CC1` [Compound 412, 1-(3,4-difluorophenyl)-N-[3-(4-methylpiperazin-1-yl)-5-(trifluoromethyl)phenyl]-1,2,4-triazol-3-amine] has a fold induction at 1 µM of 1000 to 10000 and a fold induction at 10 µM of at most 1.
